Measured values from patent publication US10544156B2, “Hemi-synthetic trilobine analogs for use as a drug” (PIERRE FABRE MEDICAMENT, priority 2015, dated 2020).

Tests used:
P73 promoter in HCT116 = assay: C5 DNA methylation analysis of P73 promoter; type: cell-based, human; details: after 7 days, at 0.32 μM
Description: (§1) Cancer cell lines (colon HCT116 or leukaemia KG1) were treated with the compounds as indicated in the Data Tables and then analysed as following.
(§2) DNA was isolated from cultured cells using the DNeasy Blood and Tissue Kit according to the manufacturer's specifications (Qiagen). DNA bisulphite conversion was performed on 2 μg of DNA using the EZ DNA Methylation-Gold Kit according to the manufacturer's specifications (Zymo Research) and bisulfited DNA was eluted with 10 μL of water.
(§3) Two different techniques were used to analyse the DNA methylation profile after bisulfite conversion of genomic DNA: (A) cloning and sequencing or (B) COBRA. The primers for each promoter are specified in Table 4.
(§4) Sequencing of bisulfite-treated DNA allowing resolution of the methylation state of every cytosine in the target sequence, at single molecule resolution, is considered as the “gold standard” for DNA methylation analysis.
(§5) Bisulfite-specific primers with a minimum length of 18 bp were designed using Primer 3 program. […]
(§6) PCR amplicons were cloned with the StrataClone Ultra Blunt PCR Cloning Kit (Agilent Technologies), according to the manufacturers' instructions and up to 24 clones were picked for sequencing. […] Electrophoregram files and methylation signals at a given CpG site were quantified using the BISMA software as described above.

[1] = test system: P15 promoter in leukaemia KG1 cells; assay: C5 DNA methylation analysis of CDKN2B (P15) promoter; type: cell-based, human; details: after 3 days, at 0.32 μM
Description: as §1, §2, §3, §4, §5, §6

In the case of `CCN(CC)CCCNC(=S)N1CCc2cc3c4cc2[C@@H]1Cc1ccc(OC)c(c1)Oc1ccc(cc1)C[C@H]1c2c(cc(OC)c(c2O4)O3)CCN1C(=S)NCCCN(CC)CC` [Product 41], the “Demethylation P73*/HCT116” value (P73 promoter in HCT116) is reported as “*−24% after 7 days”.
`CNC(=O)N1CCc2cc(OC)c3c4c2[C@@H]1Cc1ccc(cc1)Oc1cc(ccc1OC)C[C@H]1c2cc(c(cc2CCN1C)O3)O4` [Product 44] was tested, and the “Demethylation P73*/HCT116” value (P73 promoter in HCT116) was “*−17% after 7 days”.
For `COc1ccc2cc1Oc1ccc(cc1)C[C@@H]1NCCc3cc(OC)c4c(c31)Oc1cc3c(cc1O4)CCN(C)[C@H]3C2` [Trilobine (1), trilobine], the “Demethylation P15/KG1” value [1] was −25% after.
